Experimental data reported in patent US11046731B2, “Zinc-binder based EBNA1-specific compounds” (priority 2018, dated 2021).
Numbered stars: 1 amine (or outer) side, 2 acyl side, 3 side chain; on linkers, the order of the positions; unused ones are H or OH. Square brackets hold non-standard residues; d marks the D form. Peptide text beside a SMILES is read from it. * marks the point of attachment. X2 = O=C(c1ccc(/C=C/c2ccc(N[*:1])cc2)cc1)[*:2]; X1 = O=C(CN(Cc1ccccn1)Cc1ccccn1)*

How the values were obtained:
[1] = test system: BZLF1 (Zta) and BMRF1; test: IHC of EBV lytic proteins in C666-1-derived tumor tissues; assay type: in vivo, Epstein-Barr virus
[2] = test system: EBV-positive NPC43, C666-1, Raji cells; conditions: 1-20 μM, 5 days
[3] = test system: EBV-negative HeLa xenografts; conditions: 4 μg/injection every three days, 19 days
[4] = test system: Rta, BMRF1 and gp350/220 in EBV-positive NPC43 cells; test: Western blot of EBV lytic proteins; assay type: cell-based, Epstein-Barr virus; conditions: 10 μM, 7 days
[5] = test system: EBV-positive C666-1 xenografts; test: C666-1 nude mice xenograft, intratumoral injection; assay type: in vivo, BALB/c nude mice; conditions: 18 days

CSCC[C@H](NC(=O)[C@H](Cc1ccccc1)NC(=O)[C@H](Cc1ccc(O)cc1)NC(=O)c1ccc(/C=C/c2ccc(NC(=O)CN(Cc3ccccn3)Cc3ccccn3)cc2)cc1)C(=O)N[C@H](C(=O)N[C@@H](Cc1ccccc1)C(=O)O)C(C)C [ZRL5P2] (X1-[X2]YFMVF-OH)
tumor areas positive for BMRF1 (IHC) [1]: 1.15%
cytotoxicity / growth inhibition in EBV-positive cells [2]: least efficient
changes in body weights compared to the control [3]: did not cause any significant changes
protein levels of Rta and BMRF1 [4]: much weaker than that of ZRL5P4
effect on tumor growth ([5]; 4 μg/injection intra-tumoral twice weekly): did not significantly affect tumor growth
changes in body or organ weights compared to the vehicle control ([5]; 4 μg/injection): did not cause significant changes
